What all share (type): in vivo
For assay [1], the system named is Mediterranean Fruitfly (Ceratitis capitata). Nature of the assay: CE.3 Mediterranean fruitfly, comparison with prior art compounds. The following applies: 5 days; for Mediterranean fruitfly egg and larval mortality vs. untreated control (%): sprayed onto insect diet with eggs. As for the experimental part: (§1) The activity summarized in the tables hereinbelow are given as percentage of mortality in comparison with untreated control
(§2) For evaluating control of Mediterranean fruitfly (Ceratitis capitata) the test unit consisted of microtiter plates containing an insect diet and 50-80 C. capitata eggs.
(§3) The compounds were formulated using a solution containing 75% v/v water and 25% v/v DMSO. Different concentrations of formulated compounds were sprayed onto the insect diet at 5 μl, using a custom built micro atomizer, at two replications.
After application, microtiter plates were incubated at about 28±1° C. and about 80±5% relative humidity for 5 days. Egg and larval mortality was then visually assessed.

In assay [2] the test system is Vetch Aphid (Megoura Viciae). Put plainly: B.7 Vetch aphid, broad bean leaf disks in 24-well plates. The note with it: foliar, 120 h, sprayed leaf disks, adult aphids, 5 days, read-out: mortality in comparison with untreated controls. As for the experimental part: For evaluating control of vetch aphid (Megoura viciae) through contact or systemic means the test unit consisted of 24-well-microtiter plates containing broad bean leaf disks.
The compounds were formulated using a solution containing 75% v/v water and 25% v/v DMSO. Different concentrations of formulated compounds were sprayed onto the leaf disks at 2.5 μl, using a custom built micro atomizer, at two replications.
After application, the leaf disks were air-dried and 5 to 8 adult aphids placed on the leaf disks inside the microtiter plate wells. The aphids were then allowed to suck on the treated leaf disks and incubated at about 23+1° C. and about 50+5% relative humidity for 5 days. Aphid mortality and fecundity was then visually assessed.

Assay [3] has as its system Green Peach Aphid (Myzus persicae). Nature of the assay: B.3 Green peach aphid, systemic, artificial diet in 96-well plates. The note with it: 72 h, adult aphids, 3 days, read-out: mortality in comparison with untreated controls. The text has this:
For evaluating control of green peach aphid (Myzus persicae) through systemic means the test unit consisted of 96-well-microtiter plates containing liquid artificial diet under an artificial membrane.
The compounds were formulated using a solution containing 75% v/v water and 25% v/v DMSO. Different concentrations of formulated compounds were pipetted into the aphid diet, using a custom built pipetter, at two replications.
After application, 5 to 8 adult aphids were placed on the artificial membrane inside the microtiter plate wells. The aphids were then allowed to suck on the treated aphid diet and incubated at about 23+1° C. and about 50+5% relative humidity for 3 days. Aphid mortality and fecundity was then visually assessed.

For assay [4], the system named is Diamond Back Moth (Plutella xylostella). Put plainly: B.2 Diamond back moth, cabbage leaf dip. The following applies: foliar, dipped cabbage leaves, 3rd instar larvae, 72 hours after treatment, read-out: mortality in comparison with untreated controls. As to the method:
The active compound is dissolved at the desired concentration in a mixture of 1:1 (vol:vol) distilled water:aceteone. Surfactant (Alkamuls® EL 620) is added at a rate of 0.1% (vol/vol).The test solution is prepared at the day of use.
Leaves of cabbage were dipped in test solution and air-dried. Treated leaves were placed in petri dish eslined with moist filter paper and inoculated with ten 3rd instar larvae. Mortality was recorded 72 hours after treatment. Feeding damages were also recorded using a scale of 0-100%.

Assay [5] has as its system Cowpea Aphid (Aphis craccivora). Nature of the assay: B.1 Cowpea aphid, sprayed potted cowpea plants. The following applies: assessed after 72 hours, read-out: mortality in comparison with untreated controls. As to the method: The active compound is dissolved at the desired concentration in a mixture of 1:1 (vol:vol) distilled water:acetone. Surfactant (Alkamuls® EL 620) is added at a rate of 0.1% (vol/vol). The test solution is prepared at the day of use.
(§4) Potted cowpea plants were colonized with approximately 50 to 100 aphids of various stages by manually transferring a leaf tissue cut from infested plant 24 hours before application. Plants were sprayed after the pest population has been recorded. Treated plants are maintained on light carts at about 28° C. Percent mortality was assessed after 72 hours.

For assay [6], the system named is Tobacco Budworm (Heliothis virescens). Put plainly: B.8 Tobacco budworm I, insect diet with eggs in 96-well plates. The following applies: 120 h, egg and larval mortality, 5 days, read-out: mortality in comparison with untreated controls. As to the method:
For evaluating control of tobacco budworm (Heliothis virescens) the test unit consisted of 96-well-microtiter plates containing an insect diet and 15-25 H. virescens eggs.
The compounds were formulated using a solution containing 75% v/v water and 25% v/v DMSO. Different concentrations of formulated compounds were sprayed onto the insect diet at 10 μl, using a custom built micro atomizer, at two replications.
(§5) After application, microtiter plates were incubated at about 28+1° C. and about 80+5% relative humidity for 5 days. Egg and larval mortality was then visually assessed.

Assay [7] relates to Boll Weevil (Anthonomus grandis). Put plainly: B.9 Boll weevil, insect diet with eggs in 96-well plates. The note with it: 120 h, egg and larval mortality, 5 days, read-out: mortality in comparison with untreated controls. As to the method:
For evaluating control of boll weevil (Anthonomus grandis) the test unit consisted of 96-well-microtiter plates containing an insect diet and 5-10 A. grandis eggs.
as §3
After application, microtiter plates were incubated at about 25+1° C. and about 75+5% relative humidity for 5 days. Egg and larval mortality was then visually assessed.

In assay [8] the test system is Orchid Thrips (Dichromothrips Corbetti). Put plainly: B.5 Orchid thrips, floral-immersion technique. The following applies: dipped orchid flowers, adult thrips, 72 hours after treatment, read-out: mortality in comparison with untreated controls. As to the method:
Dichromothrips corbetti adults used for bioassay were obtained from a colony maintained continuously under laboratory conditions. For testing purposes, the test compound is diluted in a 1:1 mixture of acetone:water (vol:vol), plus 0.01% vol/vol Alkamuls® EL 620 surfactant.
Thrips potency of each compound was evaluated by using a floral-immersion technique. Plastic petri dishes were used as test arenas. All petals of individual, intact orchid flowers were dipped into treatment solution and allowed to dry. Treated flowers were placed into individual petri dishes along with about 20 adult thrips. The petri dishes were then covered with lids. All test arenas were held under continuous light and a temperature of about 28° C. for duration of the assay. After 3 days, the numbers of live thrips were counted on each flower, and along inner walls of each petri dish. The percentmortality was recorded 72 hours after treatment.

Assay [9] deals with Western Corn Rootworm (Diabrotica virgifera virgifera). Nature of the assay: CE.2 Western corn rootworm assay, treated soil. The following applies: second-instar larvae, 3 days after infestation. As to the method: as §1
The active compound was applied in acetone at rates of 5 and 50 ppm a.i./soil (w/w). Treatments were applied in solution to sifted, North Carolina loamy sand (Sandhill soil) in a plastic bag. Treatments were thoroughly incorporated by sealing and shaking each bag by hand and allowing the solution to soak through the soil mass for at least 10 minutes before unsealing. The bags were then kept open in a fume hood overnight to evaporate the solvent from the soil.
One day after treatment (DAT) distilled water for moisture and water-soaked millet seed (Panicum miliaceum ‘white millet’) as a food source were added to each bag and mixed in thoroughly. 11 cm^3 of millet and soil mixture were dispensed into a 1 oz. plastic cup. Each cup was infested with 10 western corn rootworm second-instar larvae. Each cup or group of four cells was a replicate, and replication was 3×. The test was maintained in incubators at 26° C. in the dark. Mortality was evaluated 3 days after infestation (DAI) and mean percent mortality was calculated.

Assay [10] relates to Mediterranean Fruitfly (Ceratitis capitata). Put plainly: B.4 Mediterranean fruitfly, insect diet with eggs in microtiter plates. The note with it: 120 h, egg and larval mortality, 5 days, read-out: mortality in comparison with untreated controls. As for the experimental part:
as §2, §3, §5

Assay [11] concerns Cowpea Aphid (Aphis craccivora). Put plainly: CE.1 Cowpea aphid, comparison with prior art compounds. The following applies: for % activity (mortality of Cowpea aphid in %, vs. untreated control): sprayed cowpea plants, assessed after 72 hours. As to the method: as §1
The active compound was dissolved at the desired concentration in a mixture of 1:1 (vol:vol) distilled water:acetone. Surfactant (Alkamuls® EL 620) is added at a rate of 0.1% (vol/vol). The test solution was prepared at the day of use.
as §4

Molecules are shown by their SMILES. Some results are limits rather than exact numbers.

As to `O=C(N=S1CCCC1)c1cc(Cl)cc(Cl)c1NC(=O)c1cc(C(F)(F)F)nn1-c1ncccc1Cl` [S.3, 2-(3-chloro-2-pyridyl)-N-[2,4-dichloro-6-[(tetrahydro-λ^4-thiophenidene)carbamoyl]phenyl]-5-(trifluoromethyl)pyrazole-3-carboxamide], in assay [1] (egg and larval mortality), the “activity against Mediterranean fruitfly in comparison with comparative compound CC-1” value is recorded as “superior activity”.

Usually mortality stands for the share of the test organisms that died. Consider `CCS(CC)=NC(=O)c1cc(Cl)cc(Cl)c1NC(=O)c1cc(C(F)(F)F)nn1-c1ncccc1Cl` [S.6, N-[4,6-dichloro-2-[(diethyl-λ^4-sulfanylidene)carbamoyl]-phenyl]-2-(3-chloro-2-pyridyl)-5-(trifluoromethyl)pyrazole-3-carboxamide], for which the mortality at 2500 ppm in assay [2] is > 75%; in [3] it was > 75%; in assay [6], > 75%; in assay [7], > 95%. Moreover, the mortality at 300 ppm in [4], in assay [5] and in assay [8] was > 75% each time. Moreover, the “% activity (mortality of Western corn rootworm in %, vs. untreated control)” value in assay [9] (5 ppm a.i./soil (w/w)) and in assay [9] (50 ppm a.i./soil (w/w)) was 100% throughout.

Consider `CCS(CC)=NC(=O)c1cc(Cl)cc(C)c1NC(=O)c1cc(C(F)(F)F)nn1-c1ncccc1Cl` [CC-2, reference compound], for which the “% activity (mortality of Western corn rootworm in %, vs. untreated control)” value in assay [9] (5 ppm a.i./soil (w/w)) stood at 21%; in assay [9] (50 ppm a.i./soil (w/w)), 93%.

With `CC(C)S(=NC(=O)c1cc(Cl)cc(Cl)c1NC(=O)c1cc(C(F)(F)F)nn1-c1ncccc1Cl)C(C)C` [S.1, 2-(3-chloro-2-pyridyl)-N-[2,4-dichloro-6-[(bis-2-propyl-λ^4-sulfanylidene)carbamoyl]phenyl]-5-(trifluoromethyl)pyrazole-3-carboxamide], the mortality at 2500 ppm in assay [2] is > 75%; in [3], > 75%; in assay [6], > 75%; in assay [10] it was > 75%; in assay [7] it was > 95%. For the same compound, the mortality at 300 ppm in [4], in assay [5] and in assay [8] was > 75% each time. In addition, the “% activity (mortality of Cowpea aphid in %, vs. untreated control)” value in assay [11] (100 ppm active ingredient), in assay [11] (300 ppm active ingredient) and in assay [11] (500 ppm active ingredient) was 100% throughout. Moreover, in [11] (percent mortality after 72 hours), the “activity against Cowpea aphid in comparison with comparative compound CC-3” value was “superior activity”. Moreover, the “% activity (mortality of Western corn rootworm in %, vs. untreated control)” value in assay [9] (5 ppm a.i./soil (w/w)) and in [9] (50 ppm a.i./soil (w/w)) was 100% each time. Also, the “Mediterranean fruitfly egg and larval mortality vs. untreated control (%)” value in assay [1] (1415 ppm active ingredient) and in assay [1] (2500 ppm active ingredient) was 100% in each case.

(Values after patent publication US9044016B2, “N-thio-anthranilamide compounds and their use as pesticides” (BASF SE, priority 2011, dated 2015).)
